# pIC50: −log10 of the molar value. The source made the active and inactive calls. The calls are words filed in the database; no cut-off is given here.
# Experiments:
# MIA PaCa-2 [1] = test: Induction of cell arrest in human MIA PaCa-2 cells assessed as necrotic cells at 100 nM measured after 4 days by Annexin V-FITC and propidium iodide (PI) staining based assay (reference value: 0.82%); assay type: functional; conditions: time 4 day
# MIA PaCa-2 [2] = test: Induction of cell arrest in human MIA PaCa-2 cells assessed as accumulation of cells at G1 phase at 500 nM measured after 96 hrs by PI staining based flow cytometry (reference value: 64%); assay type: functional
# MIA PaCa-2 [3] = test: Inhibition of RNA pol III in human MIA PaCa-2 cells assessed as effect on 5S RNA level at 0.1 to 1 uM measured after 12 hrs by RT-qPCR analysis; assay type: cell-based; conditions: dose 0.1-1 µM
# MIA PaCa-2 [4] = test: Induction of cell arrest in human MIA PaCa-2 cells assessed as accumulation of cells at S phase at 25 nM measured after 96 hrs by PI staining based flow cytometry (reference value: 16.8%); assay type: functional
# MIA PaCa-2 [5] = test: Induction of cell arrest in human MIA PaCa-2 cells assessed as late apoptotic cells at 50 nM measured after 4 days by Annexin V-FITC and propidium iodide (PI) staining based assay (reference value: 3.23%); assay type: functional; conditions: time 4 day
# MIA PaCa-2 [6] = test: Induction of cell arrest in human MIA PaCa-2 cells assessed as viable cells at 200 nM measured after 4 days by Annexin V-FITC and propidium iodide (PI) staining based assay (reference value: 94.9%); assay type: functional; conditions: MIA PaCa-2, 96 h, time 4 day, read-out: Activity
# MIA PaCa-2 [7] = test: Induction of cell arrest in human MIA PaCa-2 cells assessed as late apoptotic cells at 500 nM measured after 4 days by Annexin V-FITC and propidium iodide (PI) staining based assay (reference value: 3.23%); assay type: functional; conditions: time 4 day
# [8] = Toxicity in BALB/c mouse xenografted with human MIA PaCa-2 cells assessed as pathological change in liver at 25 to 100 mg/kg, iv once daily for 25 consecutive day after 2 weeks of cells injection by H and E staining based optical microscopic analysis; assay type: organism-based; conditions: in vivo, 336 h, dose 25-100 mg/kg
# MIA PaCa-2 [9] = test: Induction of cell arrest in human MIA PaCa-2 cells assessed as late apoptotic cells at 100 nM measured after 4 days by Annexin V-FITC and propidium iodide (PI) staining based assay (reference value: 3.23%); assay type: functional; conditions: time 4 day
# MIA PaCa-2 [10] = test: Inhibition of mitochondria coded ubiquinone oxidoreductase core subunit 1 (ND I) transcript level in human MIA PaCa-2 cells measured after 12 to 36 hrs of compound removal by RT-qPCR analysis; assay type: functional; conditions: time 12-36 hrs
# MIA PaCa-2 [11] = test: Induction of cell arrest in human MIA PaCa-2 cells assessed as late apoptotic cells at 25 nM measured after 4 days by Annexin V-FITC and propidium iodide (PI) staining based assay (reference value: 3.23%); assay type: functional; conditions: time 4 day
# MIA PaCa-2 [12] = test: Induction of cell arrest in human MIA PaCa-2 cells assessed as early apoptotic cells at 500 nM measured after 4 days by Annexin V-FITC and propidium iodide (PI) staining based assay (reference value: 1.07%); assay type: functional; conditions: time 4 day
# MIA PaCa-2 [13] = test: Inhibition of RNA pol II in human MIA PaCa-2 cells assessed as effect on 25S RNA level at 0.1 to 1 uM measured after 12 hrs by RT-qPCR analysis; assay type: cell-based; conditions: dose 0.1-1 µM
# MIA PaCa-2 [14] = test: Induction of cell arrest in human MIA PaCa-2 cells assessed as accumulation of cells at G2 phase at 50 nM measured after 96 hrs by PI staining based flow cytometry (reference value: 11.2%); assay type: functional
# MIA PaCa-2 [15] = test: Induction of cell arrest in human MIA PaCa-2 cells assessed as necrotic cells at 200 nM measured after 4 days by Annexin V-FITC and propidium iodide (PI) staining based assay (reference value: 0.82%); assay type: functional; conditions: time 4 day
# MIA PaCa-2 [16] = test: Induction of cell arrest in human MIA PaCa-2 cells assessed as accumulation of cells at G1 phase at 100 nM measured after 96 hrs by PI staining based flow cytometry (reference value: 64%); assay type: functional
# [17] = target: DNA-directed RNA polymerase, mitochondrial (Homo sapiens) (UniProt O00411); test: Thermal stabilization of human POLRMT in human MIA PaCa-2 cells assessed as melting temperature at 100 uM measured after 30 mins incubation by Wester blot analysis (reference value: 42 degreeC); assay type: cell-based
# [18] = Toxicity in BALB/c mouse xenografted with human MIA PaCa-2 cells assessed as pathological change in kidney at 25 to 100 mg/kg, iv once daily for 25 consecutive day after 2 weeks of cells injection by H and E staining based optical microscopic analysis; assay type: organism-based; conditions: in vivo, 336 h, dose 25-100 mg/kg
# MIA PaCa-2 [19] = test: Induction of cell arrest in human MIA PaCa-2 cells assessed as viable cells at 500 nM measured after 4 days by Annexin V-FITC and propidium iodide (PI) staining based assay (reference value: 94.9%); assay type: functional; conditions: MIA PaCa-2, 96 h, time 4 day, read-out: Activity
# MIA PaCa-2 [20] = test: Induction of cell arrest in human MIA PaCa-2 cells assessed as accumulation of cells at G2 phase at 25 nM measured after 96 hrs by PI staining based flow cytometry (reference value: 11.2%); assay type: functional
# MIA PaCa-2 [21] = test: Induction of cell arrest in human MIA PaCa-2 cells assessed as necrotic cells at 500 nM measured after 4 days by Annexin V-FITC and propidium iodide (PI) staining based assay (reference value: 0.82%); assay type: functional; conditions: time 4 day
# MIA PaCa-2 [22] = test: Effect on ATP5A protein complexes in human MIA PaCa-2 cells reduction in NDUFB8 protein level at 0.01 to 10 uM by Western blot analysis; assay type: functional, cell-based; conditions: dose 0.01-10 µM
# MIA PaCa-2 [23] = test: Induction of cell arrest in human MIA PaCa-2 cells assessed as accumulation of cells at G1 phase at 50 nM measured after 96 hrs by PI staining based flow cytometry (reference value: 64%); assay type: functional
# MIA PaCa-2 [24] = test: Antitumor activity against human MIA PaCa-2 cells xenografted in BALB/c nude mouse assessed as reduction in Ki67 protein expression at 25 to 100 mg/kg, iv once daily for 25 consecutive day after 2 weeks of cells injection by immunohistochemical analysis; assay type: functional, organism-based; conditions: dose 25-100 mg/kg
# MIA PaCa-2 [25] = test: Induction of cell arrest in human MIA PaCa-2 cells assessed as accumulation of cells at S phase at 50 nM measured after 96 hrs by PI staining based flow cytometry (reference value: 16.8%); assay type: functional
# CAPAN-1 = test: Antiproliferative activity against human CAPAN-1 cells assessed as cell viability measured after 168 hrs incubation by SRB assay; assay type: functional, cell-based; conditions: CAPAN-1, 168 h
# PANC-1 = test: Antiproliferative activity against human PANC-1 cells assessed as cell viability measured after 168 hrs incubation by SRB assay; assay type: functional, cell-based; conditions: PANC-1, 168 h
# MIA PaCa-2 [26] = test: Induction of intracellular ROS generation in human MIA PaCa-2 cells at 0.1 to 5 uM incubated for 96 hrs by DCFH-DA staining based flow cytometry; assay type: functional, cell-based; conditions: dose 0.1-5 µM
# MIA PaCa-2 [27] = test: Induction of cell arrest in human MIA PaCa-2 cells assessed as viable cells at 100 nM measured after 4 days by Annexin V-FITC and propidium iodide (PI) staining based assay (reference value: 94.9%); assay type: functional; conditions: MIA PaCa-2, 96 h, time 4 day, read-out: Activity
# Chain of DNA-directed RNA polymerase, mitochondrial (Homo sapiens) (O00411 whole entry): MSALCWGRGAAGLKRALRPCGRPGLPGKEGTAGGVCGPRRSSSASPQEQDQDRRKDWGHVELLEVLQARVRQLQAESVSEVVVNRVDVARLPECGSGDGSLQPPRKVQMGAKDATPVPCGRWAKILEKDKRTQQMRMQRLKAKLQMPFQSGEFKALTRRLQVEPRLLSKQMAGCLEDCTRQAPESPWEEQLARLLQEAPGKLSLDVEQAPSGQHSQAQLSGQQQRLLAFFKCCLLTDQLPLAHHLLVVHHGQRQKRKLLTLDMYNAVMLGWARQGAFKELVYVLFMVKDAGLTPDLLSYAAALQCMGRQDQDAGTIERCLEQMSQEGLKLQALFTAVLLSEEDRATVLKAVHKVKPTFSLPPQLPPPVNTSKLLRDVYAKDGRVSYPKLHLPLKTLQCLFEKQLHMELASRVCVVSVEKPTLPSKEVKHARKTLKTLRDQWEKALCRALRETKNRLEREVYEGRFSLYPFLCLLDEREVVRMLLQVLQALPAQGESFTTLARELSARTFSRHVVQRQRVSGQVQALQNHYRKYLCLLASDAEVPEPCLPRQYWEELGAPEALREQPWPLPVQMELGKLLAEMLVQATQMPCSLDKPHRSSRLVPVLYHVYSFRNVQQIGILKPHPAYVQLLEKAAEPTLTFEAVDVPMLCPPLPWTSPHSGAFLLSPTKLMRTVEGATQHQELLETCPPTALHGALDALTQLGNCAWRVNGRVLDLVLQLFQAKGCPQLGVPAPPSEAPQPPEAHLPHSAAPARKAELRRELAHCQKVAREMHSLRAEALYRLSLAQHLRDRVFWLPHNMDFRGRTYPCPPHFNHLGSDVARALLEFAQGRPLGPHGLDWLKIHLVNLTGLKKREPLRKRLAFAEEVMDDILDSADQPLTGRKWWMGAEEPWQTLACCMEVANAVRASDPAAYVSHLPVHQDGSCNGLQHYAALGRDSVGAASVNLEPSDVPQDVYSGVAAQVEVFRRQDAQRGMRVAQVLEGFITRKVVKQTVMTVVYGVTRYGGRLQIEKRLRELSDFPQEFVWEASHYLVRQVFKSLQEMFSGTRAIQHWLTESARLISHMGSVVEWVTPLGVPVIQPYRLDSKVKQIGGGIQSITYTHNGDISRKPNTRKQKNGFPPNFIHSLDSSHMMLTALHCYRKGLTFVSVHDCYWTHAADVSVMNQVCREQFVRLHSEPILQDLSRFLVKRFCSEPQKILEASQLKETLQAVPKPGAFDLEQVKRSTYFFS
structure (smiles),measurement,setting,value
CCN(CC)C(=O)[C@@H](C)Oc1cc2oc(=O)cc(-c3ccccc3C)c2cc1F,Activity,MIA PaCa-2 [1],0.94%
same,Activity,MIA PaCa-2 [2],63.4%
same,inhibition,MIA PaCa-2 [3],inactive
same,Activity,MIA PaCa-2 [4],14.2%
same,Activity,MIA PaCa-2 [5],4.02%
same,viability at 0.2 µM,MIA PaCa-2 [6],94.2%
same,Activity,MIA PaCa-2 [7],3.69%
same,Activity,[8],Non-Toxic
same,Activity,MIA PaCa-2 [9],3.61%
same,inhibition,MIA PaCa-2 [10],Active
same,Activity,MIA PaCa-2 [11],3.32%
same,Activity,MIA PaCa-2 [12],0.77%
same,inhibition,MIA PaCa-2 [13],inactive
same,Activity,MIA PaCa-2 [14],10.4%
same,Activity,MIA PaCa-2 [15],0.83%
same,Activity,MIA PaCa-2 [16],63.6%
same,Tm,[17],57 °C
same,Activity,[18],Non-Toxic
same,viability at 0.5 µM,MIA PaCa-2 [19],94.3%
same,Activity,MIA PaCa-2 [20],12.6%
same,Activity,MIA PaCa-2 [21],1.28%
same,Activity,MIA PaCa-2 [22],inactive
same,Activity,MIA PaCa-2 [23],67.1%
same,Activity,MIA PaCa-2 [24],Active
same,Activity,MIA PaCa-2 [25],15.4%
same,pIC50,CAPAN-1,6.39
same,pIC50,PANC-1,6.70
same,Activity,MIA PaCa-2 [26],inactive
same,viability at 0.1 µM,MIA PaCa-2 [27],94.9%

# — ChEMBL document CHEMBL5550206, “Identification of 6-Fluorine-Substituted Coumarin Analogues as POLRMT Inhibitors with High Potency and Safety for Treatment of Pancreatic Cancer” (J Med Chem, 2024)
